Measured values from ChEMBL document CHEMBL3886805, “Pyrrolotriazinone derivatives as PI3K inhibitors” (2016).

Target: T1, Phosphatidylinositol 4,5-bisphosphate 3-kinase catalytic subunit delta isoform (Homo sapiens, UniProt O00329)
T1 sequence (O00329 whole entry): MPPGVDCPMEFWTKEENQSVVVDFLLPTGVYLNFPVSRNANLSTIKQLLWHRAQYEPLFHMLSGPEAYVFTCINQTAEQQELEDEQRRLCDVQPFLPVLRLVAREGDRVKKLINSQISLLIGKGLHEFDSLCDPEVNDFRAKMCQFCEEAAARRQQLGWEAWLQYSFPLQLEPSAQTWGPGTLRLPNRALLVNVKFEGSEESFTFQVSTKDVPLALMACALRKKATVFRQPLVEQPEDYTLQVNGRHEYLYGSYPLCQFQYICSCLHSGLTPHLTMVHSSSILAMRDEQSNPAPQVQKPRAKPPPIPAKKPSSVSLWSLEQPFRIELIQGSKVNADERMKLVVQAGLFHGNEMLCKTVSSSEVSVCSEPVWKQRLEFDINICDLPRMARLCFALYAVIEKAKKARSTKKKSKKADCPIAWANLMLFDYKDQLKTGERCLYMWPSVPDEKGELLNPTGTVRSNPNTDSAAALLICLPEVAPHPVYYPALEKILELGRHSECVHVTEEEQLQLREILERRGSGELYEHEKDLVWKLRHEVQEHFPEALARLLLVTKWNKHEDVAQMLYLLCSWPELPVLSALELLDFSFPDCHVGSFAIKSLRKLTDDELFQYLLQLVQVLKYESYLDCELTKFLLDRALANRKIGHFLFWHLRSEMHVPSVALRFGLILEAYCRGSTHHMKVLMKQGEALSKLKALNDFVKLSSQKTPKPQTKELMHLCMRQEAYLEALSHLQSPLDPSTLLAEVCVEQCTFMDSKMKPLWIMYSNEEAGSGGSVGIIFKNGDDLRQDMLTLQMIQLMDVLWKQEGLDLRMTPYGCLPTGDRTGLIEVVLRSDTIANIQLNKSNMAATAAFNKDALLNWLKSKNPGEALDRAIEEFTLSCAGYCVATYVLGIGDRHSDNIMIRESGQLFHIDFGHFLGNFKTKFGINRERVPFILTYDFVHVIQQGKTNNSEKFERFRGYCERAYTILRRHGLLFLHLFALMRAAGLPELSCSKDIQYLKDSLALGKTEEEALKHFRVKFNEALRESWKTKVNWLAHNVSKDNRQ
Test: [PIP2] was used at its Km.

Q: Which IC50 does the source give for `COc1ncc(-c2c(N)ncnc2N[C@@H](C)c2nn3ccc(Br)c3c(=O)n2-c2ccccc2)cc1NS(C)(=O)=O` here?
A: The IC50 was 25 nM.

Q: With `C[C@H](Nc1ncnc(N)c1C#N)c1nn2ccc(Sc3ccc(O)c(F)c3)c2c(=O)n1-c1ccccc1` as the compound, how does the IC50 read?
A: The IC50 was 2 nM.

Q: For `COc1ccc(S(=O)(=O)n2ncc3ccc(-c4c(N)ncnc4N[C@@H](C)c4nn5ccc(C)c5c(=O)n4-c4ccccc4)cc32)cc1`, which IC50 is on record?
A: The IC50 was 0.4 nM.

Q: How did the IC50 turn out when `Cc1ccn2nc([C@H](C)Nc3ncnc(N)c3C(=O)Nc3cc(C(N)=O)ccc3O)n(-c3ccccc3)c(=O)c12` was run?
A: Its IC50 is 3 nM.

Q: Which IC50 does the source give for `COc1ncc(-c2c(N)ncnc2N[C@@H](C)c2nn3ccc(C)c3c(=O)n2-c2ccccc2)cc1NS(=O)(=O)C(F)(F)F` here?
A: The IC50 was 1 nM.

Q: With `Cc1ccn2nc([C@H](C)Nc3ncnc(N)c3C(=O)Nc3cccc(O)c3)n(-c3ccccc3)c(=O)c12` as the compound, how does the IC50 read?
A: Its IC50 is 3 nM.
